These results are taken from US20090215893A1, “Parakeratosis inhibitor, pore-shrinking agent,or rough skin preventing/ameliorating agent, and external composition for skin” (Shiseido Company Ltd, priority 2005, published 2009).

The subject of data set [1] is cheek of a panel of 20 women. Briefly: Sensory irritation tests. The format is in vivo, human. The following applies: for Evaluation (sensory irritation, class of average rating): 1 mL on cheek, evaluated for ten minutes, 20 women; for sensory irritation: summary of Table 4, β-alanine at 3%. As for the experimental part: 1 mL of a control aqueous solution and the sample aqueous solution prepared in Example 1 were applied using a cotton swab to the left or right cheek, respectively, of a panel of 20 women, the irritating sensation was evaluated every 30 seconds for ten minutes beginning immediately after application, and a final evaluation was reported. The evaluation of the irritating sensation was based on the following four steps of rating criteria, the average rating was calculated, and the average was classified by the following criteria.
3: Discontinued because of extremely strong irritation, such as stinging sensation, burning sensation, tickling sensation, itching, and the like.
2: Intolerable strong irritation, such as stinging sensation, burning sensation, tickling sensation, itching, and the like.
1: Tolerable with only slight stinging sensation, burning sensation, tickling sensation, itching, and the like.
0: Not particularly irritating.
A: average rating of less than 0.2
B: average rating of 0.2 to less than 1.0
C: average rating of 1.0 to less than 2.0
D: average rating of 2.0 or greater

Data set [2] concerns back of hairless mice (HR-1), 10 mass % oleic acid applied. Briefly: Inhibiting effect against rough skin induced by oleic acid application (transepidermal water loss). The format is in vivo. Details: ΔTEWL value: unit not given here. The following applies: for ΔTEWL value: three days, average of four animals, rough skin worse as value increases, control 12.0; for ΔTEWL value compared with the control aqueous solution / rough skin preventing/ameliorating effect: summary of Table 3, concentrations as in Table 3. The procedure: In order to investigate the inhibiting effect of α-amino acid derivatives and salts thereof against rough skin induced by oleic acid application, the transepidermal water loss (TEWL value) before and after application was measured, the difference was compared with the control (control aqueous solution), and the effect was determined. Sample preparation and the application method were in accordance with Example 1. The TEWL was determined using the TM210 TEWA Meter (Courage+Khazaka Electronic GmBH).
100 μL of 10 mass % oleic acid (solvent: ethanol) was applied to the back of hairless mice (HR-1, four mice per group). Then a sample solution (α-amino acid derivatives, and the like) was applied 100 μL at a time. This procedure was continued for three days. The following day, the TEWL value of the back was determined and the values of the four animals were averaged. Rough skin became worse as the ΔTEWL value increased.

Data set [3] deals with back of a hairless mouse (HR-1), 10 mass % oleic acid applied. Briefly: Parakeratosis-inhibiting effect tests: oleic acid applied to hairless mouse back, macroscopic rough skin evaluation and parakeratosis value. The format is in vivo. The following applies: for Macroscopic evaluation (average of four animals): 100 μL after oleic acid, three days, rough skin score 0.0 (no redness) to 2.0 (control); for Parakeratosis value (average of four animals): tape-stripped stratum corneum, hematoxylin, range 1.0 to 3.0, higher = parakeratosis advanced, control 2.0; for parakeratosis value / parakeratosis-inhibiting effect / rough skin preventing effect, based on stratum corneum peeling and redness: summary of Table 1, concentrations as in Table 1. As for the experimental part:
Aqueous solutions (containing 30 mass % of ethanol) of primarily 3 mass % of an α-amino acid derivative or salt thereof were prepared as the evaluation sample. The pH was regulated by hydrochloric acid or sodium hydroxide so as to be 7.0 to 7.5. When sample solubility was low, the solution was prepared accordingly.
100 μL of 10 mass % oleic acid solution (solvent: ethanol) were applied to the back of a hairless mouse (HR-1; Hoshino Laboratory Animals). Then the sample solution (α-amino acid derivative, and the like) was applied 100 μL at a time. This procedure was continued for three days. […] The status of the skin was evaluated in 0.25-point intervals, with skin where the control (control aqueous solution) had been applied being 2.0 and skin where there was no redness being 0.0. At the same time, the stratum corneum at the back of the hairless mouse was peeled off with tape, the nuclei were stained by hematoxylin, and the degree of parakeratosis was observed and evaluated by a parakeratosis value within a range of 1.0 to 3.0 (in 0.25 increments).

In data set [4] the test system is pores of the cheeks of healthy human males. Briefly: Human pore-shrinking effect (replica assessment of cheek pores). The format is in vivo. The settings on record: for Replica assessment (average of n = 5): twice a day for one month, pore size rating 1-13, after application minus before application, control 0.3; for pore-shrinking effect: summary of Table 2, concentrations as in Table 2. The procedure: An experiment was conducted whereby a sample was applied twice a day for one month to the cheeks of healthy human males in groups of 5 men each. Aqueous solutions (containing 15 mass % of ethanol) of 3 mass % of the α-amino acid derivative or a salt thereof were prepared as the evaluation sample. The pH was regulated by hydrochloric acid or sodium hydroxide so as to be 7.0 to 7.5. When sample solubility was low, the solution was prepared accordingly. The control was an aqueous 15% ethanol solution. The sample aqueous solution and control aqueous solution were applied to one half of the face at a time.
A replica was collected before and after continuous application, and changes in the shape of the pores at the same site were observed using a three-dimensional laser scanning microscope. The size of the pores was macroscopically evaluated in 13 steps of 1 through 13 (with the pores becoming larger as the numbers became larger), the difference in the ratings before and after application (after application-before application) was calculated, and the efficacy of each sample was studied using this difference as the replica assessment.

Regarding `CC(NS(=O)(=O)c1ccccc1)C(=O)O` (racemic) [N-benzenesulfonyl-DL-alanine], the “Evaluation (sensory irritation, class of average rating)” value in data set [1] (sample 1.5 mass %) is recorded as “A (average rating of less than 0.2)”. Besides, in data set [1], the “sensory irritation” value is listed as “no problems”. This compound came in with a ΔTEWL value in data set [2] (sample 1.5 mass %) of 7.0. In data set [2], the “ΔTEWL value compared with the control aqueous solution / rough skin preventing/ameliorating effect” value is “significantly lower”. Moreover, in data set [3] (sample 1.5 mass %), the “Macroscopic evaluation (average of four animals)” value (from here on “Macroscopic evaluation”) turned out to be 1.4 and the “Parakeratosis value (average of four animals)” value worked out at 1.5. Also, in data set [3], the “parakeratosis value / parakeratosis-inhibiting effect” value is listed as “reduced”; the “rough skin preventing effect, based on stratum corneum peeling and redness” value (from here on “rough skin preventing effect, based”) is “seen”. Also, the “Replica assessment (average of n = 5)” value in data set [4] (sample 1.5 mass %) is −0.8. Also, the “pore-shrinking effect” value in data set [4] is recorded as “seen”.
Regarding `O=C(O)C(CO)NS(=O)(=O)c1ccccc1` (racemic) [N-benzenesulfonyl-DL-serine], the “Evaluation (sensory irritation, class of average rating)” value in data set [1] (sample 3 mass %) is “A (average rating of less than 0.2)”. Besides, the “sensory irritation” value in data set [1] is reported as “no problems”. Also, the ΔTEWL value in data set [2] (sample 3 mass %) is listed as 6.9. In addition, in data set [2], the “ΔTEWL value compared with the control aqueous solution / rough skin preventing/ameliorating effect” value is recorded as “significantly lower”. In data set [3] (sample 3 mass %), the “Macroscopic evaluation” value is given as 1.2 and the “Parakeratosis value (average of four animals)” value is 1.2. In data set [3], the “parakeratosis value / parakeratosis-inhibiting effect” value is “reduced”; the “rough skin preventing effect, based” value is “seen”. Also, the “Replica assessment (average of n = 5)” value in data set [4] (sample 3 mass %) is reported as −1.3. Also, the “pore-shrinking effect” value in data set [4] is listed as “seen”.
`CC(NC(=O)OCc1ccccc1)C(=O)O` (racemic) [N-carbobenzoyloxy-DL-alanine]: the “Evaluation (sensory irritation, class of average rating)” value in data set [1] (sample 3 mass %) is reported as “A (average rating of less than 0.2)”. For the same compound, the “sensory irritation” value in data set [1] is listed as “no problems”. In addition, the ΔTEWL value in data set [2] (sample 3 mass %) stood at 6.6. Also, the “ΔTEWL value compared with the control aqueous solution / rough skin preventing/ameliorating effect” value in data set [2] was “significantly lower”. In data set [3] (sample 3 mass %), the “Macroscopic evaluation” value was determined as 1.3 and the “Parakeratosis value (average of four animals)” value is given as 1.2. Besides, in data set [3], the “parakeratosis value / parakeratosis-inhibiting effect” value was “reduced”; the “rough skin preventing effect, based” value is on record as “seen”. The “Replica assessment (average of n = 5)” value in data set [4] (sample 3 mass %) is −1.0. Moreover, the “pore-shrinking effect” value in data set [4] is on record as “seen”.
`O=C(NC(CO)C(=O)O)OCc1ccccc1` (racemic) [N-carbobenzoyloxy-DL-serine]: the “Evaluation (sensory irritation, class of average rating)” value in data set [1] (sample 3 mass %) is listed as “A (average rating of less than 0.2)”. Further, in data set [1], the “sensory irritation” value is “no problems”. The compound further returned a ΔTEWL value in data set [2] (sample 3 mass %) of 6.7. Besides, the “ΔTEWL value compared with the control aqueous solution / rough skin preventing/ameliorating effect” value in data set [2] was “significantly lower”. Moreover, in data set [3] (sample 3 mass %), the “Macroscopic evaluation” value is listed as 1.2 and the “Parakeratosis value (average of four animals)” value was 1.2. In data set [3], the “parakeratosis value / parakeratosis-inhibiting effect” value was “reduced”; the “rough skin preventing effect, based” value was “seen”. Moreover, the “Replica assessment (average of n = 5)” value in data set [4] (sample 3 mass %) is −1.3. Besides, in data set [4], the “pore-shrinking effect” value is reported as “seen”.
Turning to `CC(NC1CCCCC1)C(=O)O` (racemic) [N-cyclohexyl-DL-alanine], in data set [1] (sample 3 mass %), the “Evaluation (sensory irritation, class of average rating)” value was “A (average rating of less than 0.2)”. For the same compound, the “sensory irritation” value in data set [1] is “no problems”. This compound gave a ΔTEWL value in data set [2] (sample 3 mass %) of 6.5. Besides, the “ΔTEWL value compared with the control aqueous solution / rough skin preventing/ameliorating effect” value in data set [2] is “significantly lower”. In data set [3] (sample 3 mass %), the “Macroscopic evaluation” value turned out to be 1.3 and the “Parakeratosis value (average of four animals)” value was found to be 1.4. Besides, in data set [3], the “parakeratosis value / parakeratosis-inhibiting effect” value is “reduced”; the “rough skin preventing effect, based” value was “seen”. Besides, the “Replica assessment (average of n = 5)” value in data set [4] (sample 3 mass %) is −1.4. Besides, in data set [4], the “pore-shrinking effect” value is “seen”.
With `O=C(O)C(CO)NC1CCCCC1` (racemic) [N-cyclohexyl-DL-serine], in data set [1] (sample 3 mass %), the “Evaluation (sensory irritation, class of average rating)” value is “A (average rating of less than 0.2)”. In addition, the “sensory irritation” value in data set [1] is recorded as “no problems”. Further, in data set [2] (sample 3 mass %), the ΔTEWL value was 6.7. The “ΔTEWL value compared with the control aqueous solution / rough skin preventing/ameliorating effect” value in data set [2] is recorded as “significantly lower”. Further, in data set [3] (sample 3 mass %), the “Macroscopic evaluation” value is recorded as 1.2 and the “Parakeratosis value (average of four animals)” value turned out to be 1.2. In data set [3], the “parakeratosis value / parakeratosis-inhibiting effect” value is on record as “reduced”; the “rough skin preventing effect, based” value is listed as “seen”. Also, in data set [4] (sample 3 mass %), the “Replica assessment (average of n = 5)” value was −1.4. The “pore-shrinking effect” value in data set [4] is on record as “seen”.
As to `CCNC(C)C(=O)O` (racemic) [N-ethyl-DL-alanine], the “Evaluation (sensory irritation, class of average rating)” value in data set [1] (sample 3 mass %) was “A (average rating of less than 0.2)”. Also, in data set [1], the “sensory irritation” value is listed as “no problems”. Besides, the ΔTEWL value in data set [2] (sample 3 mass %) was 8.2. For the same compound, in data set [2], the “ΔTEWL value compared with the control aqueous solution / rough skin preventing/ameliorating effect” value is listed as “significantly lower”. For the same compound, in data set [3] (sample 3 mass %), the “Macroscopic evaluation” value stood at 1.6 and the “Parakeratosis value (average of four animals)” value is recorded as 1.5. In data set [3], the “parakeratosis value / parakeratosis-inhibiting effect” value is reported as “reduced”; the “rough skin preventing effect, based” value is “seen”. In data set [4] (sample 3 mass %), the “Replica assessment (average of n = 5)” value was −0.5. Moreover, the “pore-shrinking effect” value in data set [4] is “seen”.
In the case of `O=C(O)CNC(=O)c1ccccc1` [Hippuric acid, reference compound], the ΔTEWL value in data set [2] (sample 1 mass %) was 10.5. Further, the “ΔTEWL value compared with the control aqueous solution / rough skin preventing/ameliorating effect” value in data set [2] is recorded as “not obtained”. For the same compound, in data set [3] (sample 1 mass %), the “Macroscopic evaluation” value turned out to be 1.9 and the “Parakeratosis value (average of four animals)” value was determined as 2.0. Further, the “parakeratosis value / parakeratosis-inhibiting effect” value in data set [3] is on record as “not seen”.
In the case of `CC(=O)NCC(=O)O` [N-acetyl-glycine, reference compound], the ΔTEWL value in data set [2] (sample 3 mass %) is listed as 14.7. Further, the “ΔTEWL value compared with the control aqueous solution / rough skin preventing/ameliorating effect” value in data set [2] is “not obtained”. In addition, in data set [3] (sample 3 mass %), the “Macroscopic evaluation” value worked out at 1.9 and the “Parakeratosis value (average of four animals)” value is given as 2.0. Further, the “parakeratosis value / parakeratosis-inhibiting effect” value in data set [3] was “not seen”.
As to `O=C(O)CNCP(=O)(O)O` [Phosphonomethyl-glycine, reference compound], the ΔTEWL value in data set [2] (sample 1 mass %) is recorded as 11.4. The “ΔTEWL value compared with the control aqueous solution / rough skin preventing/ameliorating effect” value in data set [2] is “not obtained”. In data set [3] (sample 1 mass %), the “Macroscopic evaluation” value was 1.9 and the “Parakeratosis value (average of four animals)” value came to 2.1. Moreover, the “parakeratosis value / parakeratosis-inhibiting effect” value in data set [3] is “not seen”.
`NCCC(=O)O` [β-alanine, reference compound]: the “Evaluation (sensory irritation, class of average rating)” value in data set [1] (sample 3 mass %) is “D (average rating of 2.0 or greater)”. Moreover, the “sensory irritation” value in data set [1] is on record as “strong sensory irritation”.
